According to US20060063711A1, “Use of sglt homolog” (priority 2002, published 2006):

Columns and labels:
Format in all cases: cell-based
[1] = biological target: T1, human SGLT2 (hSGLT2) (Homo sapiens, UniProt P31639); assay: α-methyl glucose uptake in CHO cells expressing hSGLT2; conditions: control = NMDG without NaCl
T1 construct: expressed in transfected cells; host or cells: CHO cells
T1 sequence (P31639 1-672): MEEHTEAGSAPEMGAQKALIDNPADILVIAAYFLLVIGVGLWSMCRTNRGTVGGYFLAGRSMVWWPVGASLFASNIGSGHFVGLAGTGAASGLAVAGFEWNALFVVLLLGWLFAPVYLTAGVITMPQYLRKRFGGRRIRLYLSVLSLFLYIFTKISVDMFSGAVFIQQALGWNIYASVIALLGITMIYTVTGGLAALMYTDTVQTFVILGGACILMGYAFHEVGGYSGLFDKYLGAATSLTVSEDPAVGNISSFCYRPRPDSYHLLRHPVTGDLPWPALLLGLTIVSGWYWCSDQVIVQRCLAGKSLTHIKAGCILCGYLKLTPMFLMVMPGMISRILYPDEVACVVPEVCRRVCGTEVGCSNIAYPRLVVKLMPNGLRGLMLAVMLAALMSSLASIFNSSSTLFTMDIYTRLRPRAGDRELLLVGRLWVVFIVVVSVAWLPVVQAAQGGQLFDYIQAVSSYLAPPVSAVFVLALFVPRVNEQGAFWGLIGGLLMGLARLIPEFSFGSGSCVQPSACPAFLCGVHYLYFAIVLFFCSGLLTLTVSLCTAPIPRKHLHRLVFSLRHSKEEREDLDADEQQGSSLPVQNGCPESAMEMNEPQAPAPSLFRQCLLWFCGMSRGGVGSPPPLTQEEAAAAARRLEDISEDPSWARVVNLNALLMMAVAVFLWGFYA
Experimental: The cells were plated on 100 μl of DMEM containing 10% FBS charged in a 96-well plate in a cell density of 1×10^5 cells/well, followed by culturing overnight at 37° C. […] The buffer solution was removed and replaced with 90 μl of the same buffer solution or the buffer solution containing NaCl or NaCl+Phlorizin (Sigma) in place of N-Methyl-D-Glucamine (NMDG). After one-hour incubation with 10 μl of 1 mM α-methyl glucose (containing 0.02 μCi of [^14C]-α-Methyl Glucose (Amersham Pharmacia Biotech)) per well, the cells were washed 3 times with 200 μl of chilled PBS buffer. The radioactivity of ^14C taken up into the cells was counted with 100 μl of a liquid scintillator added per well.

[2] = biological target: T2, human SGLT homolog (hSGLTh) (Homo sapiens, UniProt Q2M3M2, I269M); assay: α-methyl glucose uptake in CHO cells expressing hSGLTh; conditions: for Uptake of α-Methyl Glucose (% based on Control Group): hSGLTh CHO cells, control = NMDG without NaCl
T2 construct: expressed in transfected cells; host or cells: CHO cells
T2 sequence (Q2M3M2 8-681 I269M limits assumed): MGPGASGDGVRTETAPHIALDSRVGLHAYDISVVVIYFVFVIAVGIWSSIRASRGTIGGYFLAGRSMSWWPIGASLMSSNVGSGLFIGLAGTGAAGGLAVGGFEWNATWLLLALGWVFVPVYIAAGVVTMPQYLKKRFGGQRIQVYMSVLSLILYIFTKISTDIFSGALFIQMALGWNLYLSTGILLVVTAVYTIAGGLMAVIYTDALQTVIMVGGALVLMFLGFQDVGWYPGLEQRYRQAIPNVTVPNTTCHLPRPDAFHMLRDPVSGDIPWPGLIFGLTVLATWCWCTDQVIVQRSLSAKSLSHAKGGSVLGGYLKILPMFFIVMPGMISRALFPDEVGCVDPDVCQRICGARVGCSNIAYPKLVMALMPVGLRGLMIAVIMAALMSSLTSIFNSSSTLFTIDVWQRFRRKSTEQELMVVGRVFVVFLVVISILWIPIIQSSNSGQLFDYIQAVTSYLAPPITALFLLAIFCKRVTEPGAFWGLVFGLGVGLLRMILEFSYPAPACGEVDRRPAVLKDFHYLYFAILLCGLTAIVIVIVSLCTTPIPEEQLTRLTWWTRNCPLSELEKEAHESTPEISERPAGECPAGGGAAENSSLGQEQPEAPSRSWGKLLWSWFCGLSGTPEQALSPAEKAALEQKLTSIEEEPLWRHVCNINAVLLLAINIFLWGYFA
Experimental: (§1) In accordance with the procedures described in Example 4 of WO 02/53738, the CHO cell lines expressing the human SGLT homolog (hSGLTh), mouse SGLT homolog (mSGLTh), rat SGLT homolog (rSGLTh), human SGLT1 (hSGLT1) and human SGLT2 (hSGLT2) were prepared, respectively, and used for experiments. The experimental uptake of α-methyl glucose, which is a glucose analog selectively taken up into the cells by SGLT, was carried out according to the method described in Am. J. Physiol., 270: G833-G843, 1996 and J. Clin. Invest., 93: 397-404, 1994. The cells were plated on 100 μl of DMEM containing 10% FBS charged in a 96-well plate in a cell density of 1×10^5 cells/well, followed by culturing overnight at 37° C. The cells were washed 3 times with 150 μl of a buffer solution (125 mM N-Methyl-D-Glucamine, 1.2 mM KH2PO4, 2.5 mM CaCl2, 1.2 mM MgSO4, 4 mM Glutamine, 10 mM HEPES (pH 7.2), 0.1 mg/ml BSA) and cultured for an hour in the same buffer solution to remove the remaining glucose. The buffer solution was removed and replaced with 90 μl of the same buffer solution or the buffer solution containing NaCl or NaCl+Phlorizin (Sigma) in place of N-Methyl-D-Glucamine (NMDG). After one-hour incubation with 10 μl of 1 mM α-methyl glucose (containing 0.02 μCi of [^14C]-α-Methyl Glucose (Amersham Pharmacia Biotech)) per well, the cells were washed 3 times with 200 μl of chilled PBS buffer. The radioactivity of ^14C taken up into the cells was counted with 100 μl of a liquid scintillator added per well.

[3] = test system: rat SGLT homolog (rSGLTh); assay: α-methyl glucose uptake in CHO cells expressing rSGLTh; conditions: control = NMDG without NaCl
Experimental: as §1, with “After one-hour incubation with 10 μl of 1 mM α-methyl glucose (containing 0.02 μCi of [^14C]-α-Methyl Glucose (Amersham Pharmacia Biotech)) per well, the cells were washed 3 times with 200 μl of chilled PBS buffer.” left out

SMILES: O=C(CCc1ccc(O)cc1)c1c(O)cc(O)cc1O[C@@H]1O[C@H](CO)[C@@H](O)[C@H](O)[C@H]1O [phlorizin]
- Uptake of α-Methyl Glucose (% based on Control Group) ([1]; NaCl + 3 μM phlorizin): 139 ± 23%
- Uptake of α-Methyl Glucose (% based on Control Group) ([1]; NaCl + 100 μM phlorizin): 48 ± 8%
- Uptake of α-Methyl Glucose (% based on Control Group) ([2]; NaCl + 3 μM phlorizin): 570 ± 142%
- Uptake of α-Methyl Glucose (% based on Control Group) ([2]; NaCl + 100 μM phlorizin): 124 ± 19%
- resistance to phlorizin ([2]; human SGLT homolog compared with SGLT1 and SGLT2): more potent than in SGLT1 and SGLT2
- Uptake of α-Methyl Glucose (% based on Control Group) ([3]; NaCl + 15 μM phlorizin): 643 ± 76%
- Uptake of α-Methyl Glucose (% based on Control Group) ([3]; NaCl + 500 μM): 118 ± 6%
